Experimental data: ChEMBL document CHEMBL6177930, “2-(4-Bromobenzyl) tethered 4-amino aryl/alkyl-5,6,7,8-tetrahydrobenzo[4,5]thieno[2,3-d]pyrimidines: design, synthesis, anticancer assessment via dual topoisomerase-I/II inhibition, and in silico studies” (RSC Med Chem, 2025)
The source made the active and inactive calls. The rule behind the calls is not given here.

Columns and labels:
[1] = test system: FaDu; assay: Inhibition of cell migration in human FaDu cells assessed as reduction in wound closure at 1 uM measured after 48 hrs by bright field microscopic analysis relative to control; assay type: functional
[2] = test system: FaDu; assay: Induction of morphological changes in human FaDu cells assessed as appearance of rounded cells at 1 uM incubated for 48 hrs by bright field microscope based analysis; assay type: functional, cell-based
[3] = test system: FaDu; assay: Antiproliferative activity against human FaDu cells assessed as inhibition of cell growth measured after 72 hrs by MTT assay; assay type: functional, cell-based
[4] = test system: FaDu; assay: Induction of apoptosis in human FaDu cells assessed as nuclear fragmentation at 1 to 5 uM by DAPI staining based analysis; assay type: functional, cell-based; details: dose 1-5 µM
[5] = test system: FaDu; assay: Induction of morphological changes in human FaDu cells assessed as appearance of rounded cells at 2 to 5 uM incubated for 48 hrs by bright field microscope based analysis; assay type: functional, cell-based; details: dose 2-5 µM
[6] = test system: FaDu; assay: Inhibition of colony formation in human FaDu cells assessed as reduction in colony formation incubated for 48 hrs crystal violet staining based analysis; assay type: functional, cell-based; details: dose 1-5 µM
[7] = test system: FaDu; assay: Induction of morphological changes in human FaDu cells assessed as appearance of detached cells at 1 uM incubated for 48 hrs by bright field microscope based analysis; assay type: functional, cell-based
[8] = test system: FaDu; assay: Induction of morphological changes in human FaDu cells assessed as appearance of detached cells at 2 to 5 uM incubated for 48 hrs by bright field microscope based analysis; assay type: functional, cell-based; details: dose 2-5 µM
[9] = test system: MDA-MB-231; assay: Antiproliferative activity against human MDA-MB-231 cells assessed as inhibition of cell growth at 10 uM measured after 48 to 72 hrs by MTT assay relative to control; assay type: functional; details: time 48-72 hrs
[10] = test system: FaDu; assay: Induction of apoptosis in human FaDu cells assessed as appearance of deformed cell membrane at 1 to 5 uM by DAPI staining based analysis; assay type: functional; details: dose 1-5 µM
[11] = test system: MCF7; assay: Induction of cell cycle arrest in human MCF7 cells assessed as accumulation of cells at S phase measured after 24 hrs by PI staining based flow cytometry analysis (reference value: 24.7%); assay type: functional
[12] = test system: FaDu; assay: Induction of morphological changes in human FaDu cells assessed as cell membrane blebbing at 2 to 5 uM incubated for 48 hrs by bright field microscope based analysis; assay type: functional; details: dose 2-5 µM
[13] = test system: FaDu; assay: Upregulation of LC3A/B level in human FaDu cells measured after 48 hrs by Western blot analysis; assay type: functional, cell-based; details: dose 1-5 µM
[14] = target: T1, Prostaglandin G/H synthase 1 (Ovis aries) (UniProt P05979); assay: Inhibition of ovine COX-1 at 10 uM relative to control
T1 sequence (whole entry): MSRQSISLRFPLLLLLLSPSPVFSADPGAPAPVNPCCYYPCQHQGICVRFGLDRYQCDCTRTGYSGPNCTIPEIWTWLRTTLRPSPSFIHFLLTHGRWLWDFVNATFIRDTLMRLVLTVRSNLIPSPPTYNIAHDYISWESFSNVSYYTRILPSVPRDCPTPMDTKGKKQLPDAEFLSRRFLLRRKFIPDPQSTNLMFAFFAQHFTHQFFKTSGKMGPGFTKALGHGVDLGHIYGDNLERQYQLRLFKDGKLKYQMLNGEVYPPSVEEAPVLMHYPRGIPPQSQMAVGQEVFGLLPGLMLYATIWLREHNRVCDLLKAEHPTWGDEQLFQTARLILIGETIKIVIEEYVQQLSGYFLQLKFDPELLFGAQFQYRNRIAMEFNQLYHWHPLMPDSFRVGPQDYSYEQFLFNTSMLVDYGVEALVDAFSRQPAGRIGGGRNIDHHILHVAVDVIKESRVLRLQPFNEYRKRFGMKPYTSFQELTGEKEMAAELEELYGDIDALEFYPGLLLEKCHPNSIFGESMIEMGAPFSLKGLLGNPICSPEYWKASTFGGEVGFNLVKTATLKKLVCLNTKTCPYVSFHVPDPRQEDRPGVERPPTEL

[15] = test system: FaDu; assay: Induction of apoptosis in human FaDu cells assessed as nuclear changes at 1 to 5 uM by DAPI staining based analysis; assay type: functional, cell-based; details: dose 1-5 µM
[16] = test system: FaDu; assay: Induction of morphological changes in human FaDu cells assessed as reduction in cell density at 1 uM incubated for 48 hrs by bright field microscope based analysis; assay type: functional
[17] = test system: FaDu; assay: Antiproliferative activity against human FaDu cells assessed as inhibition of cell growth measured after 48 hrs by MTT assay; assay type: functional, cell-based
[18] = test system: MCF7; assay: Inhibition of oxidative stress in human MCF7 cells assessed as reduction in ROS production incubated for 24 hrs by DCFH-DA staining based flow cytometry analysis; assay type: functional, cell-based
[19] = test system: FaDu; assay: Upregulation of cleaved caspase-3 level in human FaDu cells measured after 48 hrs by Western blot analysis; assay type: functional, cell-based; details: dose 1-5 µM

Q: Which results are given for `Brc1ccc(Cc2nc(N3CCN(c4ccncc4)CC3)c3c4c(sc3n2)CCCC4)cc1`?
A: inhibition at 1 µM [1]: 64.7%; Activity [2]: Active; IC50 [3]: 1730 nM; Activity ([3]; dose 0.5-50 µM): Dose-dependent-effect; Activity [4]: Active; Activity [5]: Active; inhibition [6]: Dose-dependent-effect; Activity [7]: Active; Activity [8]: Active; inhibition at 10 µM [9]: 6.27%; Activity [10]: Active; Activity [11]: 17.8%; Activity [12]: Active; Activity [13]: Dose-dependent-effect; inhibition [14]: 46.5%; Activity [15]: Active; Activity [16]: Active; IC50 [17]: 3060 nM; Activity ([17]; dose 0.5-50 µM): Dose-dependent-effect; inhibition [18]: Active; Activity [19]: Dose-dependent-effect
